Entries after “also recorded” stand apart in the source; their conditions may differ.
Legend:
Type in all cases: cell-based, human
HaCaT cells [1] = experiment: wound healing assay, cell migration; conditions: different DMG concentrations, 16 h, 20 h, 24 h, compared to the control without DMG
Experimental: (§1) 1. As part of an in-vitro study, the effect of Na-dimethylglycinate was investigated in a cell culture model with human horn-forming keratinocyte cells. For this purpose, HaCaT cells were cultured for 1, 3, 5, and 7 days in DMEM medium (including fetal calf serum and an antibiotic-antimycotic mix) and, among other things, the viability, proliferation and migration of the cells were determined using suitable measuring methods, as well as the expression of the growth factors relevant for cell growth.
To measure migration, a so-called wound healing assay was performed, based on previously published studies in T. Kawabata, T. Otsuka, K. Fujita, G. Sakai, R. Matsushima-Nishiwaki, O. Kozawa, H. Tokuda, International journal of molecular medicine 2018, 42, 3,149-3,156. The principle is based on measuring the migration of cells over time on a cultivation surface yet to be colonized. […]
At time 0 h, the wound was created and images were taken after 16 h, 20 h, and 24 h of cultivation. Based on the images, the cultivation surface, which had not yet been populated by cells, was determined using the ImageJ software. The measured values are standardized to the time point 0 h (maximum size of the wound) and given in %.

HaCaT cells [2] = experiment: CyQUANT assay, cell proliferation; conditions: after 48 h and 72 h of cultivation, versus control without DMG
Experimental: as §1
To measure proliferation, a so-called CyQUANT assay was performed. In this fluorescence-based assay, the fluorescent dye used binds to DNA (deoxyribonucleic acid), whereby the content of cellular DNA is a direct measure of the number of cells within a sample. Human epidermal keratinocyte cells (HaCaT) were seeded in a 96-well plate at a cell density of 5,000 cells/well and cultured in medium (DMEM with 10% FBS, 1% penicillin-streptomycin, 0.5% Fungizone). The next day and after a further 24 h, 48 h and 72 h of cultivation at 37° C. and 5 vol. % CO2, the cell culture medium was changed without (control) or with the active ingredient concentrations already contained. […]
Cell proliferation was determined using the CyQUANT assay. Fluorescence was measured using triple determination each time and standardized to the control at 24 h. […]

HaCaT cells [3] = experiment: MTT assay, cell viability; conditions: after 48 h and 72 h of cultivation, versus control without DMG
Experimental: as §1
For this measurement, a so-called MTT assay was used to determine cellular metabolic activity as an indicator of cell viability and cytotoxicity. This colorimetric assay is based on the reduction of a yellow tetrazolium salt (3-(4,5-dimethylthiazol-2-yl)-2,5-diphenyltetrazolium bromide or MTT) to violet formazan crystals by metabolically active cells.
Human epidermal keratinocyte cells (HaCaT) were seeded in a 96-well plate at a cell density of 5,000 cells/well and cultured in medium (DMEM with 10% FBS, 1% penicillin-streptomycin, 0.5% Fungizone). […]
Cell viability was determined using MTT assay. The absorbance was measured using quadruple determination and standardized to the control at 24 h. […]

VEGF = VEGF gene expression by qRT-PCR in HaCaT cells; conditions: after 24 h of cultivation, standardized to GAPDH, versus control
Experimental: VEGF (vascular endothelial growth factor) promotes the growth and formation of new blood and lymph vessels. Gene expression was measured using a standard method of quantitative real-time PCR (qRT-PCR).
Human epidermal keratinocyte cells (HaCaT) were seeded in a 6-well plate at a cell density of 140,000 cells/well and cultured in medium (DMEM with 10% FBS, 1% penicillin-streptomycin, 0.5% Fungizone) at 37° C. and 5 vol. % CO2. The next day, the cell culture medium was changed without (control) and with the active ingredient concentrations already contained and the cells were harvested after 24 h. Gene expression was measured using qRT-PCR based on previously published studies in B. V. Diaz, M.-C. Lenoir, A. Ladoux, C. Frelin, M. Demarchez, S. Michel, Journal of Biological Chemistry 2000, 275, 642-650.
Shown is the relative gene expression of VEGF determined by qRT-PCR (triple determination, standardized to the corresponding gene expression of a constitutively expressed gene; GAPDH-glyceraldehyde-3-phosphate dehydrogenase). The mean value with standard deviation is given.

CN(C)CC(=O)[O-].[Na+] [DMG, sodium dimethylglycinate]
migration and wound closure (HaCaT cells [1]): significantly faster
cell proliferation (CyQUANT assay) (HaCaT cells [2]): significant increase
cell viability (MTT assay) (HaCaT cells [3]): significant increase
relative gene expression of VEGF (VEGF): significant increase; also recorded: significantly increased

Reference: US20250241882A1, “COMPOSITION FOR TREATMENT OF THE SKIN” (DR. KURT WOLFF GMBH & CO. KG, priority 2022, published 2025)
